Source: patent US9771370B2, “Compounds for the inhibition of indoleamine-2,3-dioxygenase” (Merck Patent GmbH, priority 2014, dated 2017)

Biological target: Recombinant human IDO (Homo sapiens, UniProt P14902)
Assay: Bridge-IT tryptophan fluorescence assay of human IDO-1 inhibition
Type: biochemical
Details: recombinant human IDO 7.5 nM, L-tryptophan
How it was run: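 Two protocol variants: 100 μM L-Trp for 90 min at 37 °C, or 30 min enzyme–compound pre-incubation at 25 °C, then 50 μM L-Trp for 60 min at 25 °C. Reaction stopped in Bridge-IT solution A for 30 min at 30 °C.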

Recombinant human IDO, sequence (P14902 whole entry): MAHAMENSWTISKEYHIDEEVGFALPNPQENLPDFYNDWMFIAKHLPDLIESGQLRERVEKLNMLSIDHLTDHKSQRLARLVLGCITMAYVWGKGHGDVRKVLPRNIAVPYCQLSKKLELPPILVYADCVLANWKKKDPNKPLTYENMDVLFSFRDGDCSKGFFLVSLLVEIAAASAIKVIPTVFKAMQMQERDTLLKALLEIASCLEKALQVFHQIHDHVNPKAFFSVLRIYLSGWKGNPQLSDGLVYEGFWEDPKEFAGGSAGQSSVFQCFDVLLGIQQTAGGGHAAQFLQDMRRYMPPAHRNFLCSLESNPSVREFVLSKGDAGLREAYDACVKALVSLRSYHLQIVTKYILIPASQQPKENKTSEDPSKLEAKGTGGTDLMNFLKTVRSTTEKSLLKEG

| Structure (SMILES) | IC50 [nM] |
| --- | --- |
| OC(CC1c2ncccc2-c2cncn21)C1CCC2(CC1)CC2 (single isomer, unassigned) [Compound 29d, 1-[spiro[2.5]octan-6-yl]-2-[4,6,9-triazatricyclo[6.4.0.0^[2,6]]dodeca-1(8),2,4,9,11-pentaen-7-yl]ethan-1-ol] | > 1000 |
| CC(C)[C@H](N)C(=O)N1CCC(F)(CCC2c3ccccc3-c3cncn32)CC1 (single isomer, unassigned) [Compound 89a] | > 1000 |
| COc1cc2c(cn1)-c1cncn1C2CCC1(F)CCCCC1 (single isomer, unassigned) [Compound 15a, 7-[2-(1-fluorocyclohexyl)ethyl]-10-methoxy-4,6,11-triazatricyclo[6.4.0.0^[2,6]]dodeca-1(8),2,4,9,11-pentaene] | > 1000 |
| OC(CC1c2ncccc2-c2cncn21)C1CCC(C2(O)CC2)CC1 (single isomer, unassigned) [Compound 117b, 1-[4-[1-hydroxy-2-[4,6,9-triazatricyclo[6.4.0.0^[2,6]]dodeca-1(8),2,4,9,11-pentaen-7-yl]ethyl]cyclohexyl]cyclopropan-1-ol] | 100 to 1000 |
| OC(CC1c2nc(C3CC3)ccc2-c2cncn21)C1CCCCC1 (stereo not drawn) [Compound 56a, 1-cyclohexyl-2-[10-cyclopropyl-4,6,9-triazatricyclo[6.4.0.0^[2,6]]dodeca-1(8),2,4,9,11-pentaen-7-yl]ethan-1-ol] | < 100 |
| OC1CCC(C(F)(F)CC2c3c(F)ccc(F)c3-c3cncn32)CC1 (mixture of isomers) [Compound 78b, 4-(2-[6,9-difluoro-5H-imidazo[4,3-a]isoindol-5-yl]-1,1-difluoroethyl)cyclohexan-1-ol] | > 1000 |
| OC(CC1c2nc(OC3CC3)ccc2-c2cncn21)C1CCCCC1 (mixture of isomers) [Compound 68b, 1-cyclohexyl-2-[10-cyclopropoxy-4,6,9-triazatricyclo[6.4.0.0^[2,6]]dodeca-1(8),2,4,9,11-pentaen-7-yl]ethan-1-ol] | > 1000 |
| OC(CC1CCCCC1)CC1c2ncccc2-c2cncn21 (single isomer, unassigned) [Compound 62d, 1-cyclohexyl-3-[4,6,9-triazatricyclo[6.4.0.0^[2,6]]dodeca-1(8),2,4,9,11-pentaen-7-yl]propan-2-ol] | > 1000 |
| OC(CC1c2ncccc2-c2cncn21)C1CCC(C2(O)CC2)CC1 (single isomer, unassigned) [Compound 117c, 1-[4-[1-hydroxy-2-[4,6,9-triazatricyclo[6.4.0.0^[2,6]]dodeca-1(8),2,4,9,11-pentaen-7-yl]ethyl]cyclohexyl]cyclopropan-1-ol] | > 1000 |
| COc1ccc2c(n1)C(CC(N)C1CCC(F)(F)CC1)n1cncc1-2 (single isomer, unassigned) [Compound 120b, 1-(4,4-difluorocyclohexyl)-2-[10-methoxy-4,6,9-triazatricyclo[6.4.0.0^[2,6]]dodeca-1(8),2,4,9,11-pentaen-7-yl]ethan-1-amine] | > 1000 |
| FC(CC1c2ncccc2-c2cncn21)C1CCCCC1 (single isomer, unassigned) [Compound 97b, 7-[2-cyclohexyl-2-fluoroethyl]-4,6,9-triazatricyclo[6.4.0.0^[2,6]]dodeca-1(8),2,4,9,11-pentaene] | 100 to 1000 |
| OC(CC1c2ncccc2-c2cncn21)C1CCC2(CC1)CC2 (single isomer, unassigned) [Compound 29c, 1-[spiro[2.5]octan-6-yl]-2-[4,6,9-triazatricyclo[6.4.0.0^[2,6]]dodeca-1(8),2,4,9,11-pentaen-7-yl]ethan-1-ol] | 100 to 1000 |
| OC(CC1c2nc(C3CC3)ccc2-c2cncn21)C1CCCCC1 (single isomer, unassigned) [Compound 56b, 1-cyclohexyl-2-[10-cyclopropyl-4,6,9-triazatricyclo[6.4.0.0^[2,6]]dodeca-1(8),2,4,9,11-pentaen-7-yl]ethan-1-ol] | < 100 |
| CC1(C)CCC(F)(CCC2c3ncncc3-c3cncn32)CC1 (single isomer, unassigned) [Compound 66a, 7-[2-(1-fluoro-4,4-dimethylcyclohexyl)ethyl]-4,6,9,11-tetraazatricyclo[6.4.0.0^[2,6]]dodeca-1(8),2,4,9,11-pentaene] | > 1000 |
| OC(CC1c2nc(OC3CC3)ccc2-c2cncn21)C1CCC(F)(F)CC1 (single isomer, unassigned) [Compound 69a, 2-[10-cyclopropoxy-4,6,9-triazatricyclo[6.4.0.0^[2,6]]dodeca-1(8),2,4,9,11-pentaen-7-yl]-1-(4,4-difluorocyclohexyl)ethan-1-ol] | 100 to 1000 |
| OC1CCC(C(F)(F)CC2c3ccccc3-c3cncn32)CC1 (mixture of isomers) [Compound 74b, 4-(1,1-difluoro-2-[5H-imidazo[4,3-a]isoindol-5-yl]ethyl)cyclohexan-1-ol] | 100 to 1000 |

Second part, the compound after the results:

| IC50 [nM] | Structure (SMILES) |
| --- | --- |
| < 100 | NC(=O)CC1CCC(F)(CCC2c3ccccc3-c3cncn32)CC1 (single isomer, unassigned) [Compound 112b, 2-[4-fluoro-4-[2-[5H-imidazo[4,3-a]isoindol-5-yl]ethyl]cyclohexyl]acetamide] |
| > 1000 | NC(=O)CC1CCC(F)(CCC2c3c(Cl)cccc3-c3cncn32)CC1 (single isomer, unassigned) [Compound 113c, 2-[4-[2-[6-chloro-5H-imidazo[4,3-a]isoindol-5-yl]ethyl]-4-fluorocyclohexyl]acetamide] |
| > 1000 | Fc1ccnc2c1-c1cncn1C2CCC1(F)CCCCC1 (single isomer, unassigned) [Compound 102b, 12-fluoro-7-[2-(1-fluorocyclohexyl)ethyl]-4,6,9-triazatricyclo[6.4.0.0^[2,6]]dodeca-1(8),2,4,9,11-pentaene] |
| 100 to 1000 | O=C(C1CCC(F)(CCC2c3c(Cl)cccc3-c3cncn32)CC1)N1CCCCC1 (single isomer, unassigned) [Compound 115c] |
| > 1000 | O=C(C1CCC(F)(CCC2c3ncccc3-c3cncn32)CC1)N1CCCCC1 (mixture of isomers) [Compound 100b, 7-[2-[1-Fluoro-4-[(piperidin-1-yl)carbonyl]cyclohexyl]ethyl]-4,6,9-triazatricyclo[6.4.0.0^[2,6]]dodeca-1(8),2,4,9,11-pentaene] |
| > 1000 | NC(=O)C1CCC(F)(CCC2c3ccccc3-c3cncn32)CC1 (single isomer, unassigned) [Compound 79b, 4-fluoro-4-[2-[5H-imidazo[4,3-a]isoindol-5-yl]ethyl]cyclohexane-1-carboxamide] |
| > 1000 | OC1CCC(F)(CCC2c3ncccc3-c3cncn32)CC1 (mixture of isomers) [Compound 7b, 4-fluoro-4-(2-{4,6,9-triazatricyclo[6.4.0.0^[2,6]]dodeca-1(8),2,4,9,11-pentaen-7-yl}ethyl)cyclohexan-1-ol] |
| > 1000 | FC1(CCC2c3cnccc3-c3cncn32)CCCCC1 (single isomer, unassigned) [Compound 10a, 7-[2-(1-fluorocyclohexyl)ethyl]-4,6,10-triazatricyclo[6.4.0.0^[2,6]]dodeca-1(8),2,4,9,11-pentaene] |
| 100 to 1000 | OC1CCC(F)(CCC2c3ncccc3-c3cncn32)CC1 (single isomer, unassigned) [Compound 8a, 4-fluoro-4-(2-{4,6,9-triazatricyclo[6.4.0.0^[2,6]]dodeca-1(8),2,4,9,11-pentaen-7-yl}ethyl)cyclohexan-1-ol] |
| 100 to 1000 | FC1(CCC2c3c(Cl)cccc3-c3cncn32)CCOCC1 (single isomer, unassigned) [Compound 96b, 6-chloro-5-[2-(4-fluorooxan-4-yl)ethyl]-5H-imidazo[4,3-a]isoindole] |
| < 100 | OC1CCC(F)(CCC2c3c(F)cccc3-c3cncn32)CC1 (single isomer, unassigned) [Compound 16a, 4-fluoro-4-(2-(6-fluoro-5H-imidazo[5,1-a]isoindol-5-yl)ethyl)cyclohexanol] |
| > 1000 | OC1CCC(F)(CCC2c3cc(F)ncc3-c3cncn32)CC1 (single isomer, unassigned) [Compound 58d, 4-fluoro-4-[2-[10-fluoro-4,6,11-triazatricyclo[6.4.0.0^[2,6]]dodeca-1(8),2,4,9,11-pentaen-7-yl]ethyl]cyclohexan-1-ol] |
| > 1000 | Fc1cccc2c1C(CCC1(F)CCCCC1)n1cncc1-2 (single isomer, unassigned) [Compound 19a, 6-fluoro-5-(2-(1-fluorocyclohexyl)ethyl)-5H-imidazo[5,1-a]isoindole] |
| > 1000 | NC(=O)C1CCC(F)(CCC2c3ccccc3-c3cncn32)CC1 (single isomer, unassigned) [Compound 79a, 4-fluoro-4-[2-[5H-imidazo[4,3-a]isoindol-5-yl]ethyl]cyclohexane-1-carboxamide] |
| < 100 | O=C(C1CCC(F)(CCC2c3c(Cl)cccc3-c3cncn32)CC1)N1CCCCC1 (single isomer, unassigned) [Compound 115b] |
| > 1000 | OCC1CCC(F)(CCC2c3ccccc3-c3cncn32)CC1 (single isomer, unassigned) [Compound 59a, [4-fluoro-4-[2-[5H-imidazo[4,3-a]isoindol-5-yl]ethyl]cyclohexyl]methanol] |
| 100 to 1000 | Oc1cccc2c1-c1cncn1C2CCC1(F)CCC(O)CC1 (stereo not drawn) [Compound 44a, 5-(2-(1-fluoro-4-hydroxycyclohexyl)ethyl)-5H-imidazo[5,1-a]isoindol-9-ol] |
| > 1000 | FC1(CCC2c3c(Cl)cccc3-c3cncn32)CCC2(CC1)CC2 (single isomer, unassigned) [Compound 91a, 6-chloro-5-(2-[6-fluorospiro[2.5]octan-6-yl]ethyl)-5H-imidazo[4,3-a]isoindole] |
| 100 to 1000 | O=C(C1CCC(F)(CCC2c3c(F)cccc3-c3cncn32)CC1)N1CCCCC1 (mixture of isomers) [Compound 110b] |
| > 1000 | O=C(C1CCC(F)(CCC2c3c(Cl)cccc3-c3cncn32)CC1)N1CCCCC1 (single isomer, unassigned) [Compound 115d] |
